Laboratory results reported in PubChem BioAssay AID256 (DTP/NCI, 2004).
“And” between values parts separate entries of the source, which are not always exact repeats. Identical values can stand only once. Toxic doses and inconclusive results are not listed. Rule for the calls: active = survival T/C of 150% or more; inactive = T/C below 125% in these data.

Test system: CD2F1 mice, L1210 leukemia ip, survival T/C
Assay: NCI In Vivo Anticancer Drug Screen. Data for tumor model L1210 Leukemia (intraperitoneal) in CD2F1 (CDF1) mice
Conditions: higher = longer survival
Outline: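 Compound-dosed mice with transplantable tumor versus matched vehicle controls; endpoint ratio T/C reported.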

[1] = endpoint: mean survival time, dose: 100.0 mg/kg/injection, schedule: Q04DX003 (ip), vehicle: saline with Tween-80
[2] = endpoint: mean survival time, dose: 200.0 mg/kg/injection, schedule: Q04DX003 (ip), vehicle: saline with Tween-80
[3] = endpoint: mean survival time, dose: 400.0 mg/kg/injection, schedule: Q04DX003 (ip), vehicle: saline with Tween-80
[4] = endpoint: mean survival time, dose: 100.0 mg/kg/injection, schedule: Q04DX003 (ip), vehicle: saline
[5] = endpoint: mean survival time, dose: 200.0 mg/kg/injection, schedule: Q04DX003 (ip), vehicle: saline
[6] = endpoint: mean survival time, dose: 400.0 mg/kg/injection, schedule: Q04DX003 (ip), vehicle: saline
[7] = endpoint: mean survival time, dose: 100.0 mg/kg/injection, schedule: Q01DX009 (ip), vehicle: saline with Tween-80
[8] = endpoint: mean survival time, dose: 200.0 mg/kg/injection, schedule: Q01DX009 (ip), vehicle: saline with Tween-80
[9] = endpoint: mean survival time, dose: 400.0 mg/kg/injection, schedule: Q01DX009 (ip), vehicle: saline with Tween-80
[10] = endpoint: mean survival time, dose: 100.0 mg/kg/injection, schedule: Q01DX009 (ip), vehicle: saline
[11] = endpoint: mean survival time, dose: 200.0 mg/kg/injection, schedule: Q01DX009 (ip), vehicle: saline
[12] = endpoint: mean survival time, dose: 400.0 mg/kg/injection, schedule: Q01DX009 (ip), vehicle: saline
[13] = endpoint: mean survival time, dose: 100.0 mg/kg/injection, schedule: Q04DX002 (ip), vehicle: saline with Tween-80
[14] = endpoint: mean survival time, dose: 200.0 mg/kg/injection, schedule: Q04DX002 (ip), vehicle: saline with Tween-80
[15] = endpoint: mean survival time, dose: 400.0 mg/kg/injection, schedule: Q04DX002 (ip), vehicle: saline with Tween-80

Measured: T/C

COC1=CC(=O)C=C(OC(C)=O)C12Oc1c(Cl)c(C)c(Cl)c(O)c1C2=O (configuration not stated)
inactive: endpoint: mean survival time, dose: 6.25 mg/kg/injection, schedule: Q04DX002 (ip), vehicle: saline with Tween-80 105 % of control | endpoint: mean survival time, dose: 12.5 mg/kg/injection, schedule: Q04DX002 (ip), vehicle: saline with Tween-80 98 % of control | endpoint: mean survival time, dose: 25.0 mg/kg/injection, schedule: Q04DX002 (ip), vehicle: saline with Tween-80 102 % of control

CCCC(CC)C(=O)CC1CCCCC1 (configuration not stated)
inactive: [1] 105 % of control | [2] 94 % of control | [3] 98 % of control

O=C(Cl)CCc1ccnc2ccccc12
inactive: [4] 95 % of control | [5] 101 % of control | [6] 113 % of control

CC(C)OC(=O)Nc1cc(F)cc(C(F)(F)F)c1F
inactive: [7] 94 % of control | [8] 97 % of control | [9] 97 % of control

CCN=C(N)SCCS(=O)(=O)O
inactive: endpoint: mean survival time, dose: 100.0 mg/kg/injection, schedule: Q01DX005 (ip), vehicle: saline 103 % of control | [10] 97 % of control | endpoint: mean survival time, dose: 200.0 mg/kg/injection, schedule: Q01DX005 (ip), vehicle: saline 106 % of control | [11] 97 % of control | endpoint: mean survival time, dose: 400.0 mg/kg/injection, schedule: Q01DX005 (ip), vehicle: saline 95 % of control | [12] 97 % of control

NCC(=O)NCC(=O)OCCO
inactive: endpoint: mean survival time, dose: 50.0 mg/kg/injection, schedule: Q01DX009 (ip), vehicle: water 97 % of control | endpoint: mean survival time, dose: 100.0 mg/kg/injection, schedule: Q01DX009 (ip), vehicle: water 93 % of control | endpoint: mean survival time, dose: 200.0 mg/kg/injection, schedule: Q01DX009 (ip), vehicle: water 91 % of control | endpoint: mean survival time, dose: 400.0 mg/kg/injection, schedule: Q01DX009 (ip), vehicle: water 90 % of control

NNC(=O)c1cccc(C(=O)NN)c1
inactive: [7] 96 % of control | [1] 93 % of control | [8] 93 % of control | [2] 95 % of control | [9] 98 % of control | [3] 92 % of control

CC(C)(O)/C=C/C(=O)[C@](C)(O)[C@H]1[C@H](O)C[C@@]2(C)[C@@H]3CC=C4[C@@H](C=C(O)C(=O)C4(C)C)[C@]3(C)C(=O)C[C@]12C
inactive: endpoint: median survival time, dose: 0.5 mg/kg/injection, schedule: Q01DX005 (ip), vehicle: water 113 % of control | endpoint: median survival time, dose: 1.0 mg/kg/injection, schedule: Q01DX005 (ip), vehicle: water 110 % of control

CC12CCC(C1)C(C)(C)C2(O)c1ccccc1 (configuration not stated)
inactive: [1] 92 % of control

CN(C)C(=O)Nc1ccc(F)cc1
inactive: [13] 97 % of control | [14] 102 % of control | [15] 91 % of control

Cc1ccc(-c2cc(C(=O)O)c3cc(F)ccc3n2)cc1
inactive: [1] 101 % of control | [2] 95 % of control | [3] 100 % of control

O=c1cc[nH]cc1
inactive: [7] 94 % of control | [4] 103 % of control | [8] 100 % of control | [5] 97 % of control | [9] 96 % of control | [6] 95 % of control

C[CH2][Sn]([CH2]C)([O]S(=O)(=O)CC12CCC(CC1=O)C2(C)C)[O]S(=O)(=O)CC12CCC(CC1=O)C2(C)C
inactive: endpoint: mean survival time, dose: 1.56 mg/kg/injection, schedule: Q01DX009 (ip), vehicle: saline 94 % of control | endpoint: mean survival time, dose: 3.12 mg/kg/injection, schedule: Q01DX009 (ip), vehicle: saline 94 % of control | endpoint: mean survival time, dose: 6.25 mg/kg/injection, schedule: Q01DX009 (ip), vehicle: saline 103 % of control | endpoint: mean survival time, dose: 12.5 mg/kg/injection, schedule: Q01DX009 (ip), vehicle: saline 113 % of control | endpoint: mean survival time, dose: 25.0 mg/kg/injection, schedule: Q01DX009 (ip), vehicle: saline 111 % of control

CC1C=COCCO1 (configuration not stated) (tested in a mixture with another compound)
inactive: endpoint: mean survival time, dose: 100.0 mg/kg/injection, schedule: Q04DX003 (ip), vehicle: acetone 97 % of control | endpoint: mean survival time, dose: 200.0 mg/kg/injection, schedule: Q04DX003 (ip), vehicle: acetone 98 % of control | endpoint: mean survival time, dose: 400.0 mg/kg/injection, schedule: Q04DX003 (ip), vehicle: acetone 98 % of control

CCOP(=O)(OCC)C1=C(CC)CC1
inactive: endpoint: mean survival time, dose: 75.0 mg/kg/injection, schedule: Q01DX001 (ip), vehicle: other 98 % of control

NC(=S)CNC(=O)c1ccccc1
inactive: [1] 100 % of control and 101 % of control | [2] 101 % of control and 106 % of control | [3] 99 % of control and 111 % of control

CC1=C(C)CS(=O)(=O)C1
inactive: [1] 95 % of control

O=C(O)CCn1c(=O)[nH]c(=O)n(CCC(=O)O)c1=O
inactive: [7] 96 % of control | [1] 113 % of control | [8] 100 % of control | [2] 101 % of control | [9] 97 % of control | [3] 98 % of control

Cc1ccccc1NC(=O)c1cc2ccccc2cc1O
inactive: [7] 91 % of control | [1] 102 % of control | [8] 94 % of control | [2] 89 % of control | [9] 94 % of control | [3] 91 % of control

OC1C(O)C(O)C(O)C(O)C1O (configuration not stated)
inactive: [10] 104 % of control | [11] 94 % of control | [12] 94 % of control

N#CCCCCN=[N+]=[N-]
inactive: endpoint: mean survival time, dose: 75.0 mg/kg/injection, schedule: Q01DX001 (ip), vehicle: saline 97 % of control | endpoint: mean survival time, dose: 150.0 mg/kg/injection, schedule: Q01DX001 (ip), vehicle: saline 103 % of control

Cc1ccccc1N=Nc1ccc(O)cc1
inactive: endpoint: mean survival time, dose: 50.0 mg/kg/injection, schedule: Q01DX009 (ip), vehicle: saline with Tween-80 105 % of control | endpoint: mean survival time, dose: 100.0 mg/kg/injection, schedule: Q01DX001 (ip), vehicle: saline with Tween-80 103 % of control | [7] 100 % of control | endpoint: mean survival time, dose: 200.0 mg/kg/injection, schedule: Q01DX001 (ip), vehicle: saline with Tween-80 92 % of control | [8] 103 % of control

Nc1nc2c(ncn2-c2ccc(OCCNC(=O)Nc3cccc(S(=O)(=O)F)c3)cc2)c(=O)[nH]1
inactive: [13] 104 % of control | [14] 96 % of control | [15] 90 % of control

COc1cc(OC)c(C(=O)CCl)c(O)c1Cl
inactive: [7] 93 % of control

CCOc1cc2c(cc1C(C)c1ccc(OC)cc1)OCO2 (configuration not stated)
inactive: endpoint: median survival time, dose: 12.5 mg/kg/injection, schedule: Q01DX009 (ip), vehicle: distilled water + alcohol 103 % of control | endpoint: median survival time, dose: 25.0 mg/kg/injection, schedule: Q01DX009 (ip), vehicle: distilled water + alcohol 93 % of control and 104 % of control | endpoint: median survival time, dose: 50.0 mg/kg/injection, schedule: Q01DX009 (ip), vehicle: distilled water + alcohol 115 % of control and 98 % of control | endpoint: median survival time, dose: 100.0 mg/kg/injection, schedule: Q01DX009 (ip), vehicle: distilled water + alcohol 98 % of control and 108 % of control | endpoint: median survival time, dose: 200.0 mg/kg/injection, schedule: Q01DX009 (ip), vehicle: distilled water + alcohol 111 % of control
